Measured values: patent US7998987B2, “Inhibitors of c-Met and uses thereof” (Vertex Pharmaceuticals Incorporated, priority 2005, dated 2011)

Target: c-Met (Homo sapiens, UniProt P08581)
Assay: Ki determination for the inhibition of c-Met kinase activity (standard coupled enzyme system)
Assay type: biochemical
Conditions: coupled enzyme system, 200 μM ATP, 80 nM c-Met, 30° C.; read-out: c-Met Ki
Protocol: Ki Determination for the Inhibition of c-Met
Reactions were carried out in a solution containing 100 mM HEPES (pH 7.5), 10 mM MgCl2, 25 mM NaCl, 300 μM NADH, 1 mM DTT, and 1.5% DMSO. Final substrate concentrations in the assay were 200 μM ATP (Sigma Chemicals, St Louis, Mo.) and 10 μM polyGluTyr (Sigma Chemical Company, St. Louis). Reactions were carried out at 30° C. and 80 nM c-Met. Final concentrations of the components of the coupled enzyme system were 2.5 mM phosphoenolpyruvate, 300 μM NADH, 30 μg/ml pyruvate kinase and 10 μg/ml lactate dehydrogenase.
An assay stock buffer solution was prepared containing all of the reagents listed above with the exception of ATP and a test compound of the present invention. […] The reaction was initiated by the addition of 20 μL of ATP (final concentration 200 μM). Rates of reaction were obtained using a Molecular Devices Spectramax plate reader (Sunnyvale, Calif.) over 10 minutes at 30° C. The Ki values were determined from the rate data as a function of inhibitor concentration.

Sequence of c-Met (P08581 25-1390): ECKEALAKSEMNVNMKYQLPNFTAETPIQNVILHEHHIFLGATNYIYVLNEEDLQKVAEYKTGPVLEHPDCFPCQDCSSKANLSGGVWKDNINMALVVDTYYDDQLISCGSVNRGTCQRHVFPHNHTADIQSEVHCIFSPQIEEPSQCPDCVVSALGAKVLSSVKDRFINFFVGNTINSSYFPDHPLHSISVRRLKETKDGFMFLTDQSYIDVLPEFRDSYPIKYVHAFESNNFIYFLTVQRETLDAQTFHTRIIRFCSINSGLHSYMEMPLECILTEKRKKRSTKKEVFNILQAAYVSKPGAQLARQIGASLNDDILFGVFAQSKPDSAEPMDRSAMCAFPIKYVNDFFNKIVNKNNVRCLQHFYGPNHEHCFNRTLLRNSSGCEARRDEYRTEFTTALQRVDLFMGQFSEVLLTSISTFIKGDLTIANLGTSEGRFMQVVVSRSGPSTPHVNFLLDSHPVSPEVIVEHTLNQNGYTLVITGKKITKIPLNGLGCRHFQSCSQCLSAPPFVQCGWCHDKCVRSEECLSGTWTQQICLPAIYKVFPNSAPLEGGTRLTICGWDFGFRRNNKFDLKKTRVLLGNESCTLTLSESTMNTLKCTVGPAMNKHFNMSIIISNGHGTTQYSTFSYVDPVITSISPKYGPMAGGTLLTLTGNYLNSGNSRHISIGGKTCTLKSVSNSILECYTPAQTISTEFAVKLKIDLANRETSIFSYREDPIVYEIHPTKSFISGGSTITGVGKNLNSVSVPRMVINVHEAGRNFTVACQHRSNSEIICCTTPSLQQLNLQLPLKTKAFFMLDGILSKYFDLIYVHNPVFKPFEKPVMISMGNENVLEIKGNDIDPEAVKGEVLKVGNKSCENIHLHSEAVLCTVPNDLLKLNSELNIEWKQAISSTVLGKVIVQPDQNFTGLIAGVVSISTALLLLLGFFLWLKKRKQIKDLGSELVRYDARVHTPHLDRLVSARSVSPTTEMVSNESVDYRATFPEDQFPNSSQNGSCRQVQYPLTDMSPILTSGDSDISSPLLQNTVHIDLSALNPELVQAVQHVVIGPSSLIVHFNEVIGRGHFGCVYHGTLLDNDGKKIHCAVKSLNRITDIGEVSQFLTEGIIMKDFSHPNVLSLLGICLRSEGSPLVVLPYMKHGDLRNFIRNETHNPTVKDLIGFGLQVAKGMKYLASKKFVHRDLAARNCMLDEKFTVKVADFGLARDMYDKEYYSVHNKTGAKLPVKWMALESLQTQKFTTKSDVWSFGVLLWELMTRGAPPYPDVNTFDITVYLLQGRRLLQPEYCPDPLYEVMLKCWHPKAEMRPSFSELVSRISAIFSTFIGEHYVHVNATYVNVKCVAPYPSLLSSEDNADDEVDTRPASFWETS

| Ki | SMILES |
| --- | --- |
| 0.1 to 2 µM | NC(=O)c1ccc(Cc2nnc3ccc(Nc4cccc(Cl)c4)nn23)cc1 [Compound 494] |
| > 2 µM | O=C(Nc1ccc2nnc(Cc3ccc(O)cc3)n2n1)C1CCCCC1 [Compound 399] |
| 0.1 to 2 µM | CC[C@@H](CO)Nc1ccc2nnc(Cc3ccc(O)cc3)n2n1 [Compound 308] |
| < 0.1 µM | Oc1ccc(Cc2nnc3ccc(Sc4cccc(Cl)c4)nn23)cc1 [Compound 305] |
| 0.1 to 2 µM | CC(C)(C)Nc1ccc2nnc(Cc3ccc(O)cc3)n2n1 [Compound 401] |
| > 2 µM | Clc1cccc(Nc2ccc3nnc(CCc4cccnc4)n3n2)c1 [Compound 368] |
| 0.1 to 2 µM | Oc1ccc(Cc2nnc3ccc(Nc4nc5ccc(Cl)cc5s4)nn23)cc1 [Compound 481] |
| > 2 µM | O=C(Nc1ccc2nnc(Cc3ccc(O)cc3)n2n1)c1cccc(Cl)c1 [Compound 398] |
| < 0.1 µM | Fc1ccc(Cc2nnc3ccc(Nc4cccc(Cl)c4)nn23)cc1 [Compound 402] |
| > 2 µM | Oc1ccc(Cc2nnc3ccc(NC4CCNCC4)nn23)cc1 [Compound 322] |

Second part, the compound before the results:

| SMILES | Ki |
| --- | --- |
| CC(=O)N1CCCC(Nc2ccc3nnc(Cc4ccc(O)cc4)n3n2)C1 (centres unmarked) [Compound 326] | > 2 µM |
| O=[N+]([O-])c1ncccc1OCc1nnc2ccc(Nc3cccc(Cl)c3)nn12 [Compound 408] | > 2 µM |
| C[C@@H](c1ccc(O)cc1)c1nnc2ccc(Nc3ccc(Cl)nc3)nn12 [Compound 514] | 0.1 to 2 µM |
| Cc1nnc(Nc2ccc3nnc([C@@H](C)c4ccc(O)cc4)n3n2)s1 [Compound 500] | > 2 µM |
| CC(=O)N[C@H]1CCCC[C@H]1Nc1ccc2nnc([C@@H](C)c3ccc(O)cc3)n2n1 [Compound 446] | 0.1 to 2 µM |
| CC(=O)N[C@@H]1CCCC[C@H]1Nc1ccc2nnc([C@@H](C)c3ccc(O)cc3)n2n1 [Compound 450] | > 2 µM |
| CCOC(=O)c1sc(Nc2ccc3nnc([C@@H](C)c4ccc(O)cc4)n3n2)nc1C [Compound 513] | 0.1 to 2 µM |
| Clc1ccc(Cl)c(Nc2ccc3nnc(Cc4ccc5c(c4)OCO5)n3n2)c1 [Compound 363] | 0.1 to 2 µM |
| Clc1cccc(Nc2ccc3nnc(COc4ccc5c(c4)OCO5)n3n2)c1 [Compound 503] | > 2 µM |
| Fc1cccc(OCc2nnc3ccc(Nc4cccc(Cl)c4)nn23)c1 [Compound 377] | > 2 µM |
| COc1ccc(NCc2nnc3ccc(Nc4cccc(Cl)c4)nn23)cc1OC [Compound 337] | > 2 µM |
| Clc1cccc(Nc2ccc3nnc(COc4cccc(Cl)n4)n3n2)c1 [Compound 376] | > 2 µM |
| C[C@@H](c1ccc(O)cc1)c1nnc2ccc(NC3CCCC(C(F)(F)F)C3)nn12 (some centres unmarked) [Compound 521] | < 0.1 µM |
| Nc1cc(F)ccc1OCc1nnc2ccc(Nc3cccc(Cl)c3)nn12 [Compound 432] | > 2 µM |
| Fc1ccc(NCc2nnc3ccc(Nc4cccc(Cl)c4)nn23)cc1 [Compound 343] | > 2 µM |
| COCCC(=O)N[C@H]1CCCC[C@@H]1Nc1ccc2nnc([C@@H](C)c3ccc(O)cc3)n2n1 [Compound 449] | > 2 µM |
| Clc1cccc(Nc2ccc3nnc(CSc4ccccc4)n3n2)c1 [Compound 387] | > 2 µM |
| COc1cccc(Cc2nnc3ccc(Nc4cccc(Cl)c4)nn23)c1 [Compound 439] | 0.1 to 2 µM |
| CC(C)C[C@H](NC(=O)OCc1ccccc1)C1=Nn2c(Cc3ccc(O)cc3)nnc2SC1 [Compound 532] | > 2 µM |
| Clc1cccc(Nc2ccc3nnc(CNc4ccncc4)n3n2)c1 [Compound 386] | > 2 µM |
| C[C@@H](c1ccc(O)cc1)c1nnc2ccc(Nc3nncs3)nn12 [Compound 484] | 0.1 to 2 µM |

Same assay, conditions: coupled enzyme system, 200 μM ATP, 10 μM polyGluTyr, 80 nM c-Met, 30° C.; read-out: c-Met Ki

| Ki | SMILES |
| --- | --- |
| > 2 µM | NC(=O)C1CCCN(c2ccc3nnc(Cc4ccc(O)cc4)n3n2)C1 (centres unmarked) [Compound 179] |
| > 2 µM | COc1ccc(NC(=O)Nc2nn3c(Cc4ccc(O)cc4)nnc3s2)cc1 [Compound 115] |
| < 0.1 µM | Oc1ccc(Cc2nnc3sc(Nc4cccnc4)nn23)cc1 [Compound 81] |
| 0.1 to 2 µM | Oc1cccc(Cc2nnc3sc(Nc4cccc(F)c4F)nn23)c1 [Compound 123] |
| 0.1 to 2 µM | Oc1ccc(Cc2nnc3sc(Nc4ccc(Cl)cc4)nn23)cc1Cl [Compound 55] |
| > 2 µM | Oc1cccc(CCc2nnc3sc(Nc4cccc(Cl)c4)nn23)c1 [Compound 92] |
| < 0.1 µM | O=c1[nH]c2ccc(Nc3ccc4nnc(Cc5ccc(O)cc5)n4n3)cc2[nH]1 [Compound 216] |
| 0.1 to 2 µM | Clc1cccc(Nc2ccc3nnc(Cc4ccncc4)n3n2)c1 [Compound 240] |
| > 2 µM | O=C(Nc1ccc(F)cc1)Nc1nn2c(Cc3ccc(O)cc3)nnc2s1 [Compound 114] |
| < 0.1 µM | Oc1ccc(Cc2nnc3sc(Nc4cc(Cl)cc(Cl)c4)nn23)cc1 [Compound 50] |
| < 0.1 µM | C[C@@H](c1ccc(O)cc1)c1nnc2sc(Nc3cccc(Cl)c3)nn12 [Compound 116] |
| < 0.1 µM | Oc1ccc(Cc2nnc3sc(Nc4ccc(F)cc4)nn23)cc1 [Compound 46] |
| 0.1 to 2 µM | COc1cc(Cc2nnc3sc(Nc4ccccc4)nn23)ccc1O [Compound 26] |
| > 2 µM | N#Cc1cccc(Nc2nn3c(Cc4ccc(O)cc4)nnc3s2)c1 [Compound 18] |
| < 0.1 µM | Oc1ccc(Cc2nnc3sc(Nc4ccc(Cl)cc4)nn23)cc1F [Compound 54] |
| 0.1 to 2 µM | Oc1cccc(Cc2nnc3sc(Nc4cccc(C(F)(F)F)c4)nn23)c1 [Compound 137] |
| < 0.1 µM | COC(=O)c1cccc(Nc2nn3c(Cc4ccc(O)cc4)nnc3s2)c1 [Compound 61] |
| 0.1 to 2 µM | COc1ccc(Nc2nn3c(Cc4ccc(O)c(F)c4)nnc3s2)cc1 [Compound 64] |
| < 0.1 µM | Cc1cc(Nc2ccc3nnc(Cc4ccc(O)cc4)n3n2)ccc1Cl [Compound 215] |
| < 0.1 µM | C[C@@H](c1ccc(O)cc1)c1nnc2sc(Nc3cccc(F)c3)nn12 [Compound 105] |
| 0.1 to 2 µM | COc1ccccc1Nc1nn2c(C(C)c3ccc(O)cc3)nnc2s1 (centres unmarked) [Compound 32] |
| 0.1 to 2 µM | Oc1cccc(CCc2nnc3sc(Nc4cccc(Cl)c4F)nn23)c1 [Compound 109] |
| 0.1 to 2 µM | CN(C)c1ccc(Nc2nn3c(Cc4ccc5c(c4)OCO5)nnc3s2)cc1 [Compound 85] |
| 0.1 to 2 µM | Oc1ccc(Cc2nnc3ccc(NCC4CCCCC4)nn23)cc1 [Compound 195] |

Further lines, the compound ahead of its results:

| SMILES | Ki |
| --- | --- |
| COc1ccc(Cc2nnc3ccc(Nc4cccc(OC)c4)nn23)cc1 [Compound 242] | 0.1 to 2 µM |
| CNC(=O)c1cccc(Nc2ccc3nnc(Cc4ccc(O)c(F)c4)n3n2)c1 [Compound 233] | 0.1 to 2 µM |
| CNC(=O)c1cccc(Nc2ccc3nnc(Cc4ccc5c(c4)OCO5)n3n2)c1 [Compound 236] | 0.1 to 2 µM |
| c1ccc([C@@H]2C[C@H]2c2nn3c(Cc4ccc5c(c4)OCO5)nnc3s2)cc1 [Compound 47] | > 2 µM |
| Oc1ccc(Cc2nnc3ccc(NCCN4CCOCC4)nn23)cc1 [Compound 204] | > 2 µM |
| c1csc(-c2nn3c(Cc4ccc5c(c4)OCO5)nnc3s2)c1 [Compound 2, 3-((benzo[d][1,3]dioxol-5-yl)methyl)-6-(thiophen-2-yl)-[1,2,4]triazolo[3,4-b][1,3,4]thiadiazole] | 0.1 to 2 µM |
| Oc1ccc(Cc2nnc3ccc(Nc4cc(F)cc(F)c4)nn23)cc1Cl [Compound 251] | < 0.1 µM |
| c1ccc(-c2ccc3nnc(CNc4ccncc4)n3n2)cc1 [Compound 211] | > 2 µM |
| C[C@@H](c1ccc(O)c(C(C)(C)C)c1)c1nnc2sc(Nc3cccc(F)c3)nn12 [Compound 172] | 0.1 to 2 µM |
| c1csc(Cc2nn3c(Cc4ccc5c(c4)OCO5)nnc3s2)c1 [Compound 49] | > 2 µM |
